Test system: monocrotaline induced hypertension in rats
Assay: Monocrotaline-induced hypertension rat model, tail-cuff blood pressure and pulse
Type: in vivo, Sprague-Dawley rats
Description: Animal Care and Handeling. Sprague-Dawley rats (Charles River Laboratories, Wilmington, Mass.) 60 days old and weighing 140-160 g were utilized. Animals were kept in standard autoclaved rodent cages with ad libitum food (Harlan Teklad Irradiated Rodent Diet) and autoclaved water. The rats were housed on Harlan Tek-chip pelleted paper in static micro isolators maintained at 22° C., 60% relative humidity, and under a 12 h light cycle. The animals were kept at the facility for 5 days to get accustomed to the environment after the arrival from the vendor. All animal care procedures complied with the recommendations of the Guide for Care and Use of Laboratory Animals with respect to restraint, husbandry, surgical procedures, feed and fluid regulation, and veterinary care. Induction of hypertension and the treatment. Rats were injected subcutaneously with monocrotaline (MCT, 60 mg kg^−1) and monitored for 12 days for the development of pulmonary inflammation and initiation of the pulmonary hypertensive response. After the incubation period, Tristenonol aglycone (Cmp. 15 of the present invention) was administrated orally to the animals in three different doses (120, 90, and 60 mg kg^−1 body weights). Blood pressure (BP; Systolic and Diastolic) and heart beats were recorded three times a day 24, 48, and 72 h after administration of compound BP.
Test Articles and Animal Groups. Three doses of Tristenonol aglycone (Cmp 15 of the present invention) were tested. The animals were randomized before and grouped in to 10 animals per group. For positive controls used the commercially available drug Atenol® was used.
Rats were sorted into six groups of ten and treated according to the protocol in Table 1. […] All remaining groups were administered monocrotaline. […] Groups 3, 4 and 5 received Tristenonol aglycone (Cmp 15 of the present invention) at […], 90, and 60 mg respectively per kg body weight 12 days after induction of hypertension with monocrotaline. Positive Control Group 6 was given the commercial drug Atenol® at 120 mg kg^−1.
Systolic blood pressure, diastolic blood pressure and heart beats were recorded in the morning, afternoon and evening three times, 24, 48, and 72 h after Tristenonol aglycone (Cmp 15) and Atenol® administration.
Protocol for the Measurement of the Blood Pressure. A tail-cuff was placed on the tail to occlude the blood flow. Upon deflation a non-invasive blood pressure sensors, placed distal to the occlusion cuff, was utilized to monitor the blood pressure. Volume Pressure Recording. The volume pressure recording sensor utilizes a specially designed differential pressure transducer to non-invasively measure the blood volume in the tail. Volume pressure recording actually measured six blood pressure parameters simultaneously: systolic blood pressure, diastolic blood pressure, mean blood pressure, heart pulse rate, tail blood volume and tail blood flow. […] In addition, volume pressure recording was not dependent on the skin pigmentation of the animal. Dark-skinned animals have no negative effect on volume pressure recording measurements. Special attention was afforded to the length of the occlusion cuff with volume pressure recording in order to derive the most accurate blood pressure readings. Endpoint Measurements. Each animal was sacrificed when the animal reached the predetermined endpoint of being moribund or when the animals remained […]. The animals were observed and if found incapable of eating or drinking or if their body temperature were too low to sustain life, the animals were sacrificed. Treatment efficacy is determined from the reduction in systolic blood pressure, diastolic blood pressure and heart beats of the animal compared to the untreated control group. Toxicity and Necropsy Examination. Animals were weighed daily throughout the experiment. […]

[1] = 120 mg kg^−1 body weight, rats with monocrotaline
[2] = monocrotaline 60 mg kg^−1 subcutaneously

SMILES	decrease in Diastolic blood pressure compared to untreated control [1]	reduction in pulse rate compared to untreated controls [1]	reduction of mean Systolic blood pressure compared to untreated animals (120 mg kg^−1 body weight, rats with monocrotaline, 24-72 h) [%]	increase in Diastolic blood pressure in injected rats [2]	increase in Systolic blood pressure in injected rats [2]	increase in pulse rate in injected animals [2]
CC(C)NCC(O)COc1ccc(CC(N)=O)cc1 (stereo not drawn) [Atenol®]	24-25%	35-36.38%	28			
C[C@H]1C(=O)O[C@@H]2CCN3CC=C(COC(=O)[C@](C)(O)[C@]1(C)O)[C@H]23 [Monocrotaline, monocrotaline]				49-52%	40-45%	60-70%

— patent US20100152285A1, “Flavononol Renin Inhibitor Compounds and Methods of Use Thereof” (HerbalScience Group LLC, priority 2008, published 2010)
